According to patent US20230357233A1, “HETEROARYL COMPOUNDS, PREPARATION METHODS AND USES THEREOF” (INVENTISBIO CO., LTD., priority 2020, published 2023):

How the values were obtained:
[1] = molecular target: Ba/F3_KRAS^G12D cells (Homo sapiens, UniProt P01116, G12D, cells depend on it); experiment: Ba/F3 KRAS^G12D cell proliferation assay (cell-titer Glo); type: cell-based; conditions: cell growth inhibition, treated with the compounds for 3 days, read-out: BaF3_KRAS^G12D IC50
Method: Cells were seeded at a density of 5×10^3 per well into 96-well plate and incubated overnight. Serial diluted compounds were added to each well. Cells were treated with the compounds for 3 days, after which cell-titer Glo reagent (Promega #G7572) was used to assess cell proliferation. The luminescence signal was then collected on Tecan Spark plate reader. […] Cell growth inhibition of IC50 is calculated with the equation of Y=Bottom+(Top−Bottom)/(1+10^((LogIC50−X)*HillSlope))

[2] = molecular target: recombinant human KRAS^G12D protein (Homo sapiens, UniProt P01116, G12D); experiment: Temperature-dependent Fluorescence (TdF) KRAS^G12D protein binding assay; conditions: 6 μM KRAS^G12D Protein, 10 μM compound, Sypro Orange; Kd calculated from fluorescent shift
Method: The TdF assay was conducted in the 96-well-based real-time fluorescence plate reader (ABI 7500 or Roche LightCycler 480). Fluorescent dye Sypro Orange (Sigma) was used to monitor the protein folding-unfolding transition. Protein-compound binding was gauged by the shift in the unfolding transition temperature (ΔTm) acquired with and without compound. […] The sample plate was heated from 30° C. to 95° C. with a thermal ramping rate of […], taking a fluorescence reading every 0.4° C. using a CY3 channel matching the excitation and emission wavelengths of Sypro Orange (λ ex 470 nm; λ em 570 nm). Binding affinity (Kd value) was calculated based on the degree of fluorescent shift of the protein with and without compound.

Ba/F3_KRAS^G12D cells, sequence (P01116 whole entry G12D): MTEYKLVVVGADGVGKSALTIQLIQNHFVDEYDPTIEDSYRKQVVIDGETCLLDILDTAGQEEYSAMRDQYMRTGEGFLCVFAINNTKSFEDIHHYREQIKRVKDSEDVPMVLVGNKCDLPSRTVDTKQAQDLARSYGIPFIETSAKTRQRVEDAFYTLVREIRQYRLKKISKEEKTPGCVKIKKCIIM
recombinant human KRAS^G12D protein, sequence (P01116 1-188 isoform P01116-2 G12D): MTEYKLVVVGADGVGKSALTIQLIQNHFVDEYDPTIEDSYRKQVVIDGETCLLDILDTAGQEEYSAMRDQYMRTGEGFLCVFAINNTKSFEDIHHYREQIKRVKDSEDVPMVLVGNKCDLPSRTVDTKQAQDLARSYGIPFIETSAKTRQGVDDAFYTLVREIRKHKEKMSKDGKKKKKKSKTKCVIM

Row | SMILES | GI50 [1] | Kd [2]
1 | CCc1c(F)ccc2cc(O)cc(-c3nc(C(F)F)c4c(N5CC6CCC(C5)N6)nc(OC[C@@]56CCCN5C[C@H](F)C6)nc4c3F)c12 [Compound 166] | < 0.5 µM | ≤ 0.5 µM
2 | Oc1cc(-c2ncc3c(N4CC5CCC(C4)N5)nc(OC[C@@]45CCCN4C[C@H](F)C5)c(Cl)c3n2)c2ccccc2c1 [Compound 63] | 0.5 to 5 µM | > 5 µM
3 | O=c1cc2c(N3CC4CCC(C3)N4)nc(OCC34CCCN3CCC4)nc2cn1-c1cccc2ccccc12 [Compound 110] | 0.5 to 5 µM | > 5 µM
4 | C#Cc1c(F)ccc2cc(O)cc(-c3nc(OC)c4c(N5CC6CCC(C5)N6)nc(OC[C@@H]5CCCN5C)nc4c3F)c12 [Compound 160] | < 0.5 µM | ≤ 0.5 µM
5 | Fc1ccc2cccc(-c3ncc4c(N5CC6CCC(C5)N6)nc(OC[C@@]56CCCN5C[C@H](F)C6)nc4c3F)c2c1Cl [Compound 76] | < 0.5 µM | ≤ 0.5 µM
6 | CCc1c(F)ccc2cc(O)cc(-c3nc(C)c4c(N5CC6CCC(C5)N6)nc(OC[C@@]56CCCN5C[C@H](F)C6)nc4c3F)c12 [Compound 137] | < 0.5 µM | ≤ 0.5 µM
7 | Clc1cccc2cccc(-c3ncc4c(N5C6CCC5CNC6)nc(OCC56CCCN5CCC6)cc4n3)c12 [Compound 52] | 0.5 to 5 µM | > 5 µM
8 | CCc1cccc2cc(O)cc(-c3cc4c(cn3)c(N3CC5CCC(C3)N5)nc(=O)n4C[C@@H]3CCCN3C)c12 [Compound 88] | > 5 µM | > 5 µM
9 | C#Cc1c(F)ccc2cc(O)cc(-c3nc(C)c4c(N5CC6CCC(C5)N6)nc(OC[C@@]56CCCN5C[C@H](F)C6)nc4c3Cl)c12 [Compound 134] | < 0.5 µM | ≤ 0.5 µM
10 | O=c1cc2c(N3CC4CCC(C3)N4)nc(OCC34CCCN3CCC4)nc2cn1-c1cc(O)cc2ccccc12 [Compound 109] | > 5 µM | > 5 µM
11 | Cc1cc(N)nc(-c2nc(C)c3c(N4CC5CCC(C4)N5)nc(OC[C@@]45CCCN4C[C@H](F)C5)nc3c2F)c1C1CC1 [Compound 102] | > 5 µM | > 5 µM
12 | Clc1cccc2cccc(-c3ncc4c(N5CC6CCC(C5)N6)nc(OCC56CCCN5CCC6)cc4n3)c12 [Compound 46] | 0.5 to 5 µM | > 5 µM
13 | C#Cc1c(F)ccc2cc(O)cc(-c3nc(OC(C)C)c4c(N5CC6CCC(C5)N6)nc(OC[C@@H]5C[C@@H](F)CN5C)nc4c3F)c12 [Compound 197] | < 0.5 µM | ≤ 0.5 µM
14 | Fc1cc2c(N3CC4CCC(C3)N4)nc(OCC34CCCN3CCC4)nc2nc1-c1cccc2cccc(Cl)c12 [Compound 7] | > 5 µM | > 5 µM
15 | CN1CCC[C@H]1Cn1c(=O)nc(N2CCNCC2)c2cc(F)c(-c3cccc4cccc(Cl)c34)nc21 [Compound 38] | > 5 µM | > 5 µM
16 | Cc1cccc2cc(O)cc(-c3ncc4c(N5CC6CCC(C5)N6)nc(OC[C@@]56CCCN5C[C@H](F)C6)c(Cl)c4n3)c12 [Compound 58] | 0.5 to 5 µM | 0.5 to 5 µM
17 | Cc1nc(-c2ccc(F)c3nc(N)sc23)c(F)c2nc(OC[C@@]34CCCN3C[C@H](F)C4)nc(N3CC4CCC(C3)N4)c12 [Compound 99] | 0.5 to 5 µM | > 5 µM
18 | Oc1cc(-c2ncc3c(N4CC5CCC(C4)N5)cc(OC[C@@]45CCCN4C[C@H](F)C5)nc3c2F)c2ccccc2c1 [Compound 80] | 0.5 to 5 µM | 0.5 to 5 µM
19 | CCN1CCC(c2nc(OCC34CCCN3CCC4)nc3c(F)c(-c4cc(O)cc5cccc(Cl)c45)ncc23)CC1 [Compound 56] | 0.5 to 5 µM | > 5 µM
20 | Oc1cc(-c2ncc3c(N4CC5(CCCN5)C4)nc(OC[C@@]45CCCN4C[C@H](F)C5)nc3c2F)c2c(Cl)cccc2c1 [Compound 97] | > 5 µM | > 5 µM
21 | CCOc1nc(-c2cc(O)cc3ccc(F)c(Cl)c23)c(F)c2nc(OC[C@@]34CCCN3C[C@H](F)C4)nc(N3CC4CCC(C3)N4)c12 [Compound 173] | < 0.5 µM | ≤ 0.5 µM
22 | Nc1nc2c(-c3ncc4c(N5CC6CCC(C5)N6)nc(OC[C@@]56CCCN5C[C@H](F)C6)nc4c3F)ccc(F)c2s1 [Compound 68] | > 5 µM | ≤ 0.5 µM
23 | C#Cc1c(F)ccc2cc(O)cc(-c3nc(OC(C)C)c4c(N5CC6CCC(C5)N6)nc(OC[C@@H]5CCCN5C)nc4c3F)c12 [Compound 195] | < 0.5 µM | ≤ 0.5 µM
24 | Oc1cc(-c2ncc3c(N4CC5CCC(C4)N5)nc(OCC45CCCN4CCC5)c(Cl)c3n2)c2c(Cl)cccc2c1 [Compound 65] | > 5 µM | 0.5 to 5 µM
25 | Oc1cc(-c2ncc3c(N4CC5CCC(C4)N5)nc(OCC45CCCN4CCC5)cc3n2)c2c(Cl)cccc2c1Cl [Compound 59] | > 5 µM | > 5 µM
